Measured values published in patent US20110028507A1, “PYRIDINE DERIVATIVES AND METHODS OF USE THEREOF” (CRYSTALGENOMICS, INC., priority 2007, published 2011).
pIC50: −log10 of the molar value. Like-named read-outs stand apart in the source and are kept apart here.

Columns and labels:
[1] = system: EPO gene; test: Cell-based luciferase reporter assay, pEPO HRE-Luc in HeLa cells; conditions: Homo sapiens, compound 100 μM, 24 hrs, read-out: EPO fold induction over control
Text: (§1) A luciferase assay was used to determine the changes in transcription amount of EPO and VEGF genes in cells. For the luciferase assay, a human HIF I a gene was first cloned into an animal cell expression vector, pFlag-CMV, to prepare a pFlag-HIF1α vector, and a hypoxia responsible element (HRE) sequence of an EPO gene 3′-enhancer domain was then cloned upstream of luciferase and TK promoter genes to prepare a pEPO HRE-Luc expression vector. Also, the promoter and luciferase domains of the VEGF gene were cloned into a pGL3-basic vector to prepare a pVEGF-Luc expression vector. HeLa cells were seed-cultured in a medium dish to grow to about 70-80% density one day before the HeLa cells were to be used. The HeLa cells were transfected with each of the prepared pEPO HRE-Luc and pVEGF-Luc expression vectors together with the pFlag-HIF1α and the Renilla luciferase expression vector (Promega, Madison, Wis., USA), by using LipofectAMINE PLUS™ (Invitrogen Life Technologies, Carlsbad Calif.). Three hours after the transfection, the medium was exchanged with DMEM, 1% Penicillin-Streptomycin in 10% FBS supplemented with serum. At this time, cultured cells were treated with each of the compounds at the concentrations indicated. Then, the cells were cultured for 24 hrs in an incubator that was maintained under conditions of 37° C., 20% O2 and 5% CO2. After culturing, cells were washed twice with cold phosphate buffer saline (PBS). Luciferase activity of the cells was measured using the dual luciferase assay system (Promega, Madison, Wis., USA).

[2] = biological target: T1, HIF-PH2 (EGLN1) (Homo sapiens, UniProt Q9GZT9); test: HIF-PH2 (PHD2) assay (fluorescence polarization method); type: biochemical; conditions: 200 nM HIF PH2 enzyme, 50 nM peptide substrate, 30° C. one hour; read-out: IC50 (HIF PH2 inhibition activity)
T1 construct: made in house; host or cells: E. coli
T1 sequence (Q9GZT9 whole entry, species assumed): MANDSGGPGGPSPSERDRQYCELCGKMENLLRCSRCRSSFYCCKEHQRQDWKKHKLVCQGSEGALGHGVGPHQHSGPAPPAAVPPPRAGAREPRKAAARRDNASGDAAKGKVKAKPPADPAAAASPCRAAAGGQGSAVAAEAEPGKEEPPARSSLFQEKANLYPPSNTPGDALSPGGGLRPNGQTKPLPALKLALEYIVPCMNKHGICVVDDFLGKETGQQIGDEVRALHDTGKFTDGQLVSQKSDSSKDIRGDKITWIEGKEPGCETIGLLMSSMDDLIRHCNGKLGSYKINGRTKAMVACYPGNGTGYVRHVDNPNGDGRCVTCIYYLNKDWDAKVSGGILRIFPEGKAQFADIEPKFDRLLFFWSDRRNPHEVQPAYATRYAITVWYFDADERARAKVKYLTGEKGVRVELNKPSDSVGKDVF
Description: HIF-PH2 (EGLN1) was expressed from E. coli cells, and purified using two process: an Ni-affinity chromatography column and a size-exclusion chromatography column.
To evaluate activities of an HIF PH2 inhibitor, HIF PH2 enzyme that was first overexpressed by genetic recombination and then purified was used to perform an enzyme reaction. […] At this time, 2 mM ascorbic acid and 5 mM ketoglutarate with 100 μM FeCl2 or without FeCl2, were used together with crude enzyme. A concentration of HIF PH2 inhibitor to be tested was treated and reacted at 30° C. for one hour. After the reaction, the resulting reaction product was boiled at 95° C. for one minute to suppress the enzyme reaction.
To determine whether prolyl hydroxylation occurs in the substrate as the secondary reaction, 500 nM GST-VBC (GST-VHL-Elongin B-Elongin C) protein was added to a reaction buffer (50 mM Tris-Cl (pH8.0), 120 mM NaCl, 0.5% Nonidet P40), and a GST-VBC binding reaction was carried out at room temperature for 30 minutes.
A fluorescence polarization value of a sample that is not treated with the HIF PH2 inhibitor was used as 100% control, and the activities of the HIF PH2 inhibitor were measured as percentage of the remaining HIF PH2 enzyme activity in samples treated with a concentration of the HIF PH2 inhibitor to be tested.

[3] = system: VEGF gene; test: Cell-based luciferase reporter assay, pVEGF-Luc in HeLa cells; conditions: Homo sapiens, compound 100 μM, 24 hrs
Text: as §1

[4] = system: EPO; test: Human EPO immunoassay (ELISA of Hep3B culture media); type: cell-based; conditions: Hep3B cells, compound at 100 μM, 24-hour incubation; for EPO (mIU/ml): culture media ELISA; for fold induction at 100 µM: Homo sapiens, read-out: Fold Induction over control (EPO Induction)
Description: Human cells derived from hepatocarcinoma (Hep3B) tissue (see, e.g., American Type Culture Collection, Manassas Va.) were grown at 37° C., 20% O2, 5% CO2 in DMEM (GIBCO)+10% FBS, 4.5 g/L D-Glucose; L-Glutamate and 110 mg/L sodium pyruvate. Ninety-six well plates were seeded with 4×10^4 HEP3B cells/well. The media was removed and replaced with DMEM+10% FBS. Compounds were added to wells at concentrations between 1 μM-100 μM for a 24-hour incubation. Cell culture media was harvested and EPO concentration was determined using a Human Erythropoietin Quantikine IVD ELISA Kit (R&D Systems®, Minneapolis, Minn.) following the manufacturer's instructions for the benchtop assay.

[5] = read-out: VEGF 1 fold induction over control
[6] = read-out: VEGF 2 fold induction over control

Compound | pIC50 [2] | fold induction at 100 µM [1] | fold induction at 100 µM [3, 5] | fold induction at 100 µM [3, 6] | EPO (mIU/ml) [4] | fold induction at 100 µM [4]
O=C(NCc1ccccn1)c1nc(Br)c2c(sc3ccccc32)c1O [1-Bromo-4-hydroxy-benzo[4,5]thieno[3,2-c]pyridine-3-carboxylic acid (pyridin-2-ylmethyl)-amide] | > 4.60 | < 2 | 2.1 to 4 |  |  | 
COc1ccc(Cn2nnnc2CNC(=O)c2nc(Br)c3c(sc4ccccc43)c2O)cc1 [1-Bromo-4-hydroxy-benzo[4,5]thieno[3,2-c]pyridine-3-carboxylic acid [1-(4-methoxy-benzyl)-1H-tetrazol-5-ylmethyl]-amide] | 4.00 to 4.59 | < 2 | < 2 |  |  | 
COc1ccc(Cn2nnc(CNC(=O)c3nc(Br)c4c(sc5ccccc54)c3O)n2)cc1 [1-Bromo-4-hydroxy-benzo[4,5]thieno[3,2-c]pyridine-3-carboxylic acid [2-(4-methoxy-benzyl)-2H-tetrazol-5-ylmethyl]-amide] | > 4.60 | < 2 | 2.1 to 4 |  |  | 
O=C(NCc1ccccc1)c1nc(Br)c2c(sc3ccccc32)c1O [1-Bromo-4-hydroxy-benzo[4,5]thieno[3,2-c]pyridine-3-carboxylic acid benzylamide] | 4.00 to 4.59 | < 2 | < 2 |  |  | 
C[C@H](NC(=O)c1nc(Br)c2c(sc3ccccc32)c1O)C(=O)O [(S)-2-[(1-Bromo-4-hydroxy-benzo[4,5]thieno[3,2-c]pyridine-3-carbonyl)-amino]-propionic acid] | 4.00 to 4.59 | 2.1 to 4 | > 4.1 |  |  | 
C[C@H](NC(=O)c1nc(Cl)c2c(sc3ccccc32)c1O)C(=O)O [(S)-2-[(1-Chloro-4-hydroxy-benzo[4,5]thieno[3,2-c]pyridine-3-carbonyl)-amino]-propionic acid] | 4.00 to 4.59 | 2.1 to 4 | > 4.1 |  |  | 
O=C(O)CNC(=O)c1nc(Br)c2c(sc3ccccc32)c1O [[(1-Bromo-4-hydroxy-benzo[4,5]thieno[3,2-c]pyridine-3-carbonyl)-amino]-acetic acid] | > 4.60 | > 4.1 | 4 |  |  | 
O=C(O)CNC(=O)c1nc(Cl)c2c(sc3ccccc32)c1O [[(1-Chloro-4-hydroxy-benzo[4,5]thieno[3,2-c]pyridine-3-carbonyl)-amino]-acetic acid] |  | > 4.1 | > 4.1 | > 4.1 | J (J = 21-40 mIU/ml) | 21 to 50
O=C(O)CNC(=O)c1nc(Cl)c2c(sc3c(F)cccc32)c1O [[(1-Chloro-6-fluoro-4-hydroxy-benzo[4,5]thieno[3,2-c]pyridine-3-carbonyl)-amino]-acetic acid] | > 4.60 | 2.1 to 4 | 2.1 to 4 |  | I (I = 0-20 mIU/ml) | < 20
O=C(O)CNC(=O)c1nc(Cl)c2c(sc3cccc(F)c32)c1O [[(1-Chloro-9-fluoro-4-hydroxy-benzo[4,5]thieno[3,2-c]pyridine-3-carbonyl)-amino]-acetic acid] | > 4.60 |  |  | 2.1 to 4 | K (K = 41-60 mIU/ml) | > 71
N#Cc1nc(C(=O)NCC(=O)O)c(O)c2sc3ccccc3c12 [[(1-Cyano-4-hydroxy-benzo[4,5]thieno[3,2-c]pyridine-3-carbonyl)-amino]-acetic acid] |  | < 2 | 2.1 to 4 |  |  | 
O=C(O)CNC(=O)c1ncc2c(cnn2-c2ccccc2)c1O [[(4-Hydroxy-1-phenyl-1H-pyrazolo[3,4-c]pyridine-5-carbonyl)-amino]-acetic acid] | > 4.60 | > 4.1 | 2.1 to 4 |  |  | 
O=C(O)CNC(=O)c1ncc2c(cnn2-c2ccccn2)c1O [[(4-Hydroxy-1-pyridin-2-yl-1H-pyrazolo[3,4-c]pyridine-5-carbonyl)-amino]-acetic acid] | > 4.60 |  |  |  | I (I = 0-20 mIU/ml) | < 20
O=C(O)CNC(=O)c1nc(Cl)c2c(cnn2-c2ccccc2)c1O [[(7-Chloro-4-hydroxy-1-phenyl-1H-pyrazolo[3,4-c]pyridine-5-carbonyl)-amino]-acetic acid] | > 4.60 | > 4.1 | 2.1 to 4 |  |  | 
Cc1nc(C(=O)NCC(=O)O)c(O)c2sc3cc(F)ccc3c12 [[(7-Fluoro-4-hydroxy-1-methyl-benzo[4,5]thieno[3,2-c]pyridine-3-carbonyl)-amino]-acetic acid] | > 4.60 |  |  |  | L (L = >61 mIU/ml) | 21 to 50

Further lines, with some results ahead:

pIC50 [2] | Compound | fold induction at 100 µM [1] | fold induction at 100 µM [3, 5] | fold induction at 100 µM [3, 6] | EPO (mIU/ml) [4] | fold induction at 100 µM [4]
> 4.60 | Nc1ccc2sc3c(O)c(C(=O)NCC(=O)O)nc(Cl)c3c2c1 [3-(Carboxymethyl-carbamoyl)-1-chloro-4-hydroxy-benzo[4,5]thieno[3,2-c]pyridin-8-yl-ammonium] | 2.1 to 4 | 2.1 to 4 |  |  | 
> 4.60 | O=C(O)CNC(=O)c1nc(Cl)c2c(sc3ccc([N+](=O)[O-])cc32)c1O [[(1-Chloro-4-hydroxy-8-nitro-benzo[4,5]thieno[3,2-c]pyridine-3-carbonyl)-amino]-acetic acid] | 2.1 to 4 | > 4.1 |  |  | 
> 4.60 | O=C(O)CNC(=O)c1nc(Cl)c2c(sc3cc(F)ccc32)c1O [[(1-Chloro-7-fluoro-4-hydroxy-benzo[4,5]thieno[3,2-c]pyridine-3-carbonyl)-amino]-acetic acid] | > 4.1 | > 4.1 |  | K (K = 41-60 mIU/ml) | 51 to 70
> 4.60 | CN(C)c1ccc2sc3c(O)c(C(=O)NCC(=O)O)nc(Cl)c3c2c1 [[(1-Chloro-8-dimethylamino-4-hydroxy-benzo[4,5]thieno[3,2-c]pyridine-3-carbonyl)-amino]-acetic acid] | > 4.1 | > 4.1 |  |  | 
> 4.60 | O=C(O)CNC(=O)c1nc(Cl)c2c(sc3ccc(F)cc32)c1O [[(1-Chloro-8-fluoro-4-hydroxy-benzo[4,5]thieno[3,2-c]pyridine-3-carbonyl)-amino]-acetic acid] | > 4.1 | 2.1 to 4 |  | J (J = 21-40 mIU/ml) | 21 to 50
> 4.60 | CC(=O)Nc1ccc2sc3c(O)c(C(=O)NCC(=O)O)nc(Cl)c3c2c1 [[(8-Acetylamino-1-chloro-4-hydroxy-benzo[4,5]thieno[3,2-c]pyridine-3-carbonyl)-amino]-acetic acid] |  |  | < 2 |  | 
> 4.60 | O=C(O)CNC(=O)c1nc(Cl)c2c(sc3ccc(NS(=O)(=O)c4ccccc4)cc32)c1O [[(8-Benzenesulfonylamino-1-chloro-4-hydroxy-benzo[4,5]thieno[3,2-c]pyridine-3-carbonyl)-amino]-acetic acid] |  |  |  | I (I = 0-20 mIU/ml) | < 20
